Experimental data from ChEMBL document CHEMBL1150070, “A novel cytotoxic macrolide, superstolide B, related to superstolide A, from the New Caledonian marine sponge Neosiphonia superstes” (J Nat Prod, 1994).
In brackets after ≈: the same amount, converted by molar mass.

Tests used:
Format in all cases: functional, cell-based
[1] = Cytotoxicity against human NSCLC-N6-L16 cells
[2] = system: KB; experiment: Cytotoxicity against human KB cells
[3] = system: P388; experiment: Cytotoxicity against mouse P388 cells

## CO[C@@H]1C[C@H](OC(N)=O)[C@@H]2C=C[C@@H]3/C=C(C)/C=C/[C@@H](C)[C@H](/C(C)=C/[C@@H](C)NC(C)=O)OC(=O)/C=C/C=C(C)\C=C\[C@]3(C)[C@@H]2C1 [SUPERSTOLIDE B]
[1]
  IC50: 39 ng/mL (≈ 64.3 nM)
[2]
  IC50: 5 ng/mL (≈ 8.24 nM)
[3]
  IC50: 3 ng/mL (≈ 4.94 nM)
